Test results reported in patent US7250397B2, “Antiarrhythmic peptides” (Zealand Pharma A/S, priority 2000, dated 2007).
“Also recorded” adds a separate entry of the source.

Assays:
[1] = tested on: isolated perfused rabbit hearts; assay: Isolated perfused rabbit hearts (Langendorff), APD90 dispersion
[2] = tested on: isolated guinea pig myocytes; assay: Intercellular conductance Gj (GJIC), double patch clamp of cardiomyocyte pairs; assay type: cell-based; settings: 10^−8 M
Description: Cell preparation: Cells were isolated from guinea pig hearts by perfusion with collagenase according to the Langendorf method. In brief, guinea pigs were heparinised with an intraperitoneal injection of heparin (1000 IU/kg). After 30 minutes the animal was sacrificed by a blow to the neck followed by cutting the spine at the neck. The chest was opened and the aorta cannulated. Then the cannula was fixed to the aorta by a ligature, exised and perfused with Tyrodes solution for a couple of minutes. The Tyrodes solution had the following composition in mM: Na^+ 135.33, K^+ 4, Cl^− 145, PO4^− 0.33, Mg^2+ 1, Ca^2+ 2, Hepes 10, Glucose 10, pH 7.4. All perfusion media were bubled by 100% oxygen. […]. Then the heart was perfused with high K^+ solution with 0.6 mg/ml collagenase, this was done for 10-15 minutes judged from the apperance of the heart. The atria were cut off, the ventricles minced, whereafter the pieces were stirred in the collagenase solution by gently bubbling with 100% oxygen. […]
Where Ip,pulse and Ip,rest represent the current in the passive cell during the pulse and before the pulse respectively, and Up and Ua represent the voltage of the passive and active cell. […] However, the change in Gj value to a standardized intervention like a drug can be analysed by comparing the relative changes in Gj.

[3] = tested on: ventricular reentry arrhythmias; assay: Ventricular reentry arrhythmias in dogs after coronary artery occlusion; assay type: in vivo, dog; settings: i.v. bolus and infusion after CAO; from the lowest dose
Description: Three dogs were studied in the anesthetized, open chest state to facilitate electrode placement for mapping. α-chloralose was given as a bolus (200 mg/kg) and then a constant infusion at 8 mg/kg/hr (dissolved in polyethylene glycol, MW=200). The femoral vein and artery was cannulated for administration of fluid and drugs and for measurement of ascending aortic pressure, respectively.
The sinus node was clamped and the atrial appendage was paced with a programmable stimulator with constant current outputs at two times diastolic threshold. Pacing rate was ≧200 b/min to control heart rates. […] Endocardial Effective Refractory Period (ERP) was measured by the standard extrastimulus technique. Late ventricular diastolic threshold was measured during each intervention; the pacing current was four times threshold.
Test sites were chosen along the shaft of 16 pole needles (J. Kassell, Fayetteville, N.C.); each pole completely surrounds the needle shaft to prevent directionality of needle orientation from recording of adjacent Purkinje strands. Six bipolar electrograms (1 mm spacing) were recorded sequentially down the shaft of the needle by amplifying up to 1000 times, filtering from 3-1300 Hz and recording via oscilloscope during atrial pacing. Four intramural electrograms are recorded on each multipolar needle. […]

Substance: Ac-D-Tyr-D-Pro-D-4Hyp-Gly-D-Ala-Gly-NH2 [Compound 2]
- increase in APD90 dispersion during hypokalemic, acute myocardial ischemia [1]: prevented
- time of stimulation until steady-state level of Gj [2]: about 400 seconds
- inducibility of reentry ventricular tachycardia (VT) [3]: no longer inducible; also recorded: completely blocked; also recorded: No VT was inducible
